Reference: US10894807B2 (Siemens Medical Solutions USA, Inc., priority 2011, dated 2021)
Where a SMILES comes first, the peptide text is derived from it. [ ]: non-standard residue; d: D form. The star is where a group is joined. Boc = CC(C)(C)OC(=O)*; Nlys = NCCCCNCC(=O)O

Target: human PSMA (Homo sapiens (Human), UniProt Q04609)
Test: Enzymatic assay for in vitro evaluation of PSMA inhibitors (fluorescent assay of PSMA activity, NAAG substrate, OPA detection of glutamate)
Type: biochemical
Settings: for PSMA Blkg % (10 μM): compound at 10 μM
Description: Enzymatic Assay for In Vitro Evaluation of PSMA Inhibitors
The inhibitory activity of all compounds was determined using a fluorescent assay of human PSMA activity. The enzyme used in the assay was purchased from R&D Systems and stored at −80° C. The PSMA activity was assayed in a two-step process. In the first step, aliquots of enzyme (0.2 μg/mL) were incubated for 1 h at 37° C. in 50 mM HEPES, 0.1 M NaCl, pH 7.5, in the presence of 20 μM NAAG and the given inhibitor, in a volume of 250 μL, to allow for the accumulation of glutamate produced in the PSMA reaction. In the second step, the amount of accumulated glutamate was measured using the OPA reaction, and the fluorescence was read with a SpectraMax fluorescent plate reader using excitation at 330 nm and emission at 450 nm. The final Ki values for each inhibitor were calculated from the respective IC50 values using the Cheng and Prusoff equation.

Chain of human PSMA (Q04609 whole entry): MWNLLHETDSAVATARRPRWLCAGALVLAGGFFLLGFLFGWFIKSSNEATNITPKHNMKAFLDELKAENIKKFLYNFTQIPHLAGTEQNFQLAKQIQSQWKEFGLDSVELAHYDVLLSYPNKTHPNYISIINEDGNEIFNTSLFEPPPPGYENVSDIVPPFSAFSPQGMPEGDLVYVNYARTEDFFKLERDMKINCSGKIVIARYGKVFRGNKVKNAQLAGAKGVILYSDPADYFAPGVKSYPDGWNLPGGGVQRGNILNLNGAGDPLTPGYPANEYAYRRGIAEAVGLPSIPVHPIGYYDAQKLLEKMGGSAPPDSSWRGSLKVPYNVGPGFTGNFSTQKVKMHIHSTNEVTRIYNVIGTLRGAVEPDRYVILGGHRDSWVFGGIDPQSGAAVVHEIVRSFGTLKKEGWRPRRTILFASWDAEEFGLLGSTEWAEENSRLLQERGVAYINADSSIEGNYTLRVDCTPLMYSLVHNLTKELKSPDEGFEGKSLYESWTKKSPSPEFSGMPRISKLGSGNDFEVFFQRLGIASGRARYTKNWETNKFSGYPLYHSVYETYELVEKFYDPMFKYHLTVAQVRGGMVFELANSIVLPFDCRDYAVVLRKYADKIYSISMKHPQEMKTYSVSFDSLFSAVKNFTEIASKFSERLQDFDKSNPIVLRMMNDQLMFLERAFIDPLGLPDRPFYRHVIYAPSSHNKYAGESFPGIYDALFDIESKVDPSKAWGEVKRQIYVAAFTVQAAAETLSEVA

| SMILES | Ki [nM] | PSMA Blkg % (10 μM) [%] |
| --- | --- | --- |
| O=C(O)CC[C@H](Nc1nc(C(=O)O)co1)C(=O)O [P037, (S)-2-((4-Carboxyoxazol-2-yl)amino)pentanedioic Acid] | – | 12 |
| CC(=O)N(CCCCNC(=O)OC(C)(C)C)CC(=O)N[C@@H](CCC(=O)O)C(=O)O [P040, (S)-2-(2-(N-(4-(tert-Butoxycarbonylamino)butyl)acetamido)acetamido)pentanedioic Acid] (Ac-[Nlys](Boc)-Glu-OH) | – | 42 |
| CC(C)(C)OC(=O)NCCCCN(CC(=O)N[C@@H](CCC(=O)O)C(=O)O)C(=O)NO [P042, (S)-2-(2-(1-(4-(tert-Butoxycarbonylamino)butyl)-3-hydroxyureido)acetamido) pentanedioic Acid] | – | 0 |
| O=C(O)CC[C@H](NC(=O)N[C@@H](CCCCNC(=O)Cn1cc(Cn2ccnc2[N+](=O)[O-])nn1)C(=O)O)C(=O)O [P043, (S)-2-(3-((S)-1-Carboxy-5-(2-(4-2((2-nitro-1H-imidazo-1-yl)-methyl)-1H-1,2,3-triazol-1-yl)acetamido)pentyl)ureido)pentanedioic Acid] | – | 77 |
| CN(C(=O)N[C@@H](CCC(=O)O)C(=O)O)[C@@H](CCCCNC(=O)Cn1cc(Cn2ccnc2[N+](=O)[O-])nn1)C(=O)O [P044, (S)-2-(3-((S)-1-Carboxy-5-(2-(4-2((2-nitro-1H-imidazo-1-yl)methyl)-1H-1,2,3-triazol-1-yl)acetamido)pentyl)-3-methylureido)pentanedioic Acid] | – | 62 |
| O=C(O)CC[C@H](NC(=O)N[C@@H](CCCCNC(=O)CCCn1cc(CCCF)nn1)C(=O)O)C(=O)O [P045, (S)-2-(3-((S)-1-Carboxy-5-(4-(4-(3-fluoropropyl)-1H-1,2,3-triazol-1-yl)-butanamido)pentyl)ureido)pentanedioic Acid] | 10.9 | 95 |
| CN(C(=O)N[C@@H](CCC(=O)O)C(=O)O)[C@@H](CCCCNC(=O)CCCn1cc(CCCF)nn1)C(=O)O [P046, (S)-2-(3-((S)-1-Carboxy-5-(4-(4-(3-fluoropropyl)-1H-1,2,3-triazol-1-yl)-butanamido)pentyl)-3-methylureido)pentanedioic Acid] | 328 | 80 |
| CC(C)(C)OC(=O)NCCCCN(CC(=O)N[C@@H](CCC(=O)O)C(=O)O)C(N)=O [P047, (S)-2-(2-(1-(4-(tert-Butoxycarbonylamino)butyl)ureido)acetamido)pentanedioic Acid] | – | 0 |
| CC(C)(C)OC(=O)NCCCCN(CC(=O)N[C@@H](CCC(=O)O)C(=O)O)C(=O)NC(N)=O [P048, (S)-2-(2-(1-(4-(tert-Butoxycarbonylamino)butyl)-3-carbamoylureido)acetamido) pentanedioic Acid] | – | 0 |
| CC(C)(C)OC(=O)NCCCCN(CC(=O)O)CC(=O)N[C@@H](CCC(=O)O)C(=O)O [P049, (S)-2-(2-((4-(tert-Butoxycarbonylamino)butyl)(carboxymethyl)amino)acetamido) pentanedioic Acid] | – | 0 |
| CC(C)(C)OC(=O)NCCCCN1CC(=O)N([C@@H](CCC(=O)O)C(=O)O)C(=O)C1 [P050, (S)-2-(4-(4-(tert-Butoxycarbonylamino)butyl)-2,6-dioxopiperazin-1-yl)pentanedioic Acid] | – | 0 |
| CC(C)(C)OC(=O)NCCCCNCC(=O)N[C@@H](CCC(=O)O)C(=O)O [P051, (S)-2-(2-(4-(tert-Butoxycarbonylamino)butylamino)acetamido)pentanedioic Acid] (H-[Nlys](Boc)-Glu-OH) | – | 4 |
| O=C(O)CCC(NC(=O)N[C@@H](CCC(=O)O)C(=O)O)C(=O)O (some centres unmarked) [P060] | – | 96 |
| NNC(=O)N[C@@H](CCC(=O)O)C(=O)O [P061, (S)-2-(Hydrazinecarboxamido)pentanedioic Acid] | – | 0 |
| CN(C(=O)N[C@@H](CCC(=O)O)C(=O)O)[C@@H](Cc1ccc(NC(=O)CCCN=[N+]=[N-])cc1)C(=O)O [P063, (S)-2-(3-((S)-2-(4-(4-Azidobutaneamido)phenyl)-1-carboxyethyl)-3-methylureido)-pentanedioic Acid] | – | 30 |
| O=C(O)CC[C@H](NC(=O)N[C@@H](Cc1ccc(NC(=O)CCCCCn2cc(CCCF)nn2)cc1)C(=O)O)C(=O)O [P067, (S)-2-(3-((S)-1-Carboxy-2-(4-(6-(4-(3-fluoropropyl)-1H-1,2,3-triazol-1-yl)hexamido)phenyl)ethyl)ureido)pentanedioic Acid] | – | 52 |
| CN(C(=O)N[C@@H](CCC(=O)O)C(=O)O)[C@@H](Cc1ccc(NC(=O)CCCCCn2cc(CCCF)nn2)cc1)C(=O)O [P068] | – | 27 |

Continued, values first:

| Ki [nM] | PSMA Blkg % (10 μM) [%] | SMILES |
| --- | --- | --- |
| 0.78 | 89 | O=C(O)CC[C@H](NC(=O)N[C@@H](CCCCNC(=O)OCc1ccccc1)C(=O)O)C(=O)O [P033, (9S,13S)-3,11-Dioxo-1-phenyl-2-oxa-4,10,12-triazapentadecane-9,13,15-tricarboxylic Acid] |
| – | 70 | CN(C(=O)N[C@@H](CCC(=O)O)C(=O)O)[C@@H](CCCCNC(=O)CN=[N+]=[N-])C(=O)O [P034, (S)-2-(3-((S)-5-(2-Azidoacetamido)-1-carboxypentyl)-3-methylureido)pentanedioic Acid] |
| – | 0 | CCN(C(=O)N[C@@H](CCC(=O)O)C(=O)O)[C@@H](CCCCNC(=O)OCc1ccccc1)C(=O)O [P035, (9S, 13S)-10-Ethyl-3,11-dioxo-1-phenyl-2-oxa-4,10,12-triazapentadecane-9,13,15-tricarboxylic Acid] |
| – | 68 | COc1ccc(-c2cn(CC(=O)NCCCC[C@@H](C(=O)O)N(C)C(=O)N[C@@H](CCC(=O)O)C(=O)O)nn2)cc1 [P036, (S)-2-(3-((S)-1-Carboxy-5-(2-(4-(4-methoxyphenyl)-1H-1,2,3-triazol-1-yl)acetamido)-pentyl)3-methylureido)pentanedioic Acid] |
| – | 2 | O=C(O)CC[C@H](NC(=O)N(O)CCCc1ccccc1)C(=O)O [P038, (S)-2-(3-Hydroxy-3-(3-phenylpropyl)ureido)pentanedioic Acid] |
| – | 77 | CC(C)(C)OC(=O)NCCCC[C@H](NC(=O)N[C@@H](CCC(=O)O)C(=O)O)C(=O)O [P039, (10S,14S)-2,2-Dimethyl-4,12-dioxo-3-oxa-5,11,13-triazahexadecane-10,14,16-tricarboxylic Acid] |
| – | 2 | CCS(=O)(=O)N(CCc1ccccc1)CC(=O)NC(CCC(=O)O)C(=O)O (centres unmarked) [P052, 2-(2-(N-Phenethylethylsulfonamido)acetamido)pentanedioic Acid] |
| 31.3 | 94 | CN(C(=O)N[C@@H](CCC(=O)O)C(=O)O)[C@@H](CCCCNC(=O)c1ccc(-n2cc(CCCF)nn2)cc1)C(=O)O [P053, (S)-2-(3-((S)-1-Carboxy-5-(4-(4-(3-fluoropropyl)-1H-1,2,3-triazol-1-yl)benzamido)pentyl)-3-methylureido)pentanedioic Acid] |
| 1.6 | 100 | O=C(O)CC[C@H](NC(=O)N[C@@H](CCCCNC(=O)c1ccc(-n2cc(CCCF)nn2)cc1)C(=O)O)C(=O)O [P054] |
| 344 | 94 | O=C(O)CC[C@@H](C(=O)O)N1C(=O)CC(=O)N([C@@H](CCCCNC(=O)OCc2ccccc2)C(=O)O)C1=O [P055, (S)-2-(3-((S)-5-(Benzyloxycarbonylamino)-1-carboxypentyl)-2,4,6-trioxotetrahydropyrimidin-1(2H)-yl)pentanedioic Acid] |
| – | 0 | O=C(O)CC[C@H](NC(=O)NNC(=O)OCc1ccccc1)C(=O)O [P056, (S)-2-(2-((Benzyloxy)carbonyl)hydrazinecarboxamido)pentanedioic Acid] |
| – | 32 | [N-]=[N+]=Nc1ccc(C(=O)NCCCC[C@@H](C(=O)O)N2C(=O)CC(=O)N([C@@H](CCC(=O)O)C(=O)O)C2=O)cc1 [P057, (S)-2-(3-((S)-5-(4-Azidobenzamido)-1-carboxypentyl)-2,4,6-trioxotetrahydropyrimidin-1(2H)-yl)pentanedioic Acid] |
| – | 100 | [N-]=[N+]=Nc1ccc(C(=O)NCCCC[C@H](NC(=O)N[C@@H](CCC(=O)O)C(=O)O)C(=O)O)cc1 [P058, (S)-2-(3-((S)-5-(4-Azidobenzamido)-1-carboxypentyl)ureido)pentanedioic Acid] |
| 12.5 | 99 | CN(C(=O)N[C@@H](CCC(=O)O)C(=O)O)[C@@H](CCCCNC(=O)c1ccc(N=[N+]=[N-])cc1)C(=O)O [P059, (S)-2-(3-((S)-5-(4-Azidobenzamido)-1-carboxypentyl)-3-methylureido)pentanedioic Acid] |
| – | 97 | [N-]=[N+]=NCCCC(=O)Nc1ccc(C[C@H](NC(=O)N[C@@H](CCC(=O)O)C(=O)O)C(=O)O)cc1 [P062, (S)-2-(3-((S)-2-(4-(4-Azidobutaneamido)phenyl)-1-carboxyethyl)-ureido)-pentanedioic Acid] |
| – | 46 | O=C(O)CC[C@@H](C(=O)O)N1C(=O)CC(=O)N([C@@H](CCCCNC(=O)c2ccc(-n3cc(CCCF)nn3)cc2)C(=O)O)C1=O [P064, (S)-2-(3-((S)-1-Carboxy-5-(4-(4-(3-fluoropropyl)-1H-1,2,3-triazol-1-yl)benzamido)pentyl)-2,4,6-trioxotetrahydropyrimidin-1(2H)-yl)pentanedioic Acid] |
| – | 12 | CC(=O)N(CCCCN1C(=O)c2ccccc2C1=O)NC(=O)N[C@@H](CCC(=O)O)C(=O)O [P066, (S)-2-(2-Acetyl-2-(4-(1,3-dioxoisoindolin-2-yl)butyl)hydrazinecarboxamido)-pentanedioic Acid] |
